Laboratory results reported in patent US20250230193A1, “CYCLIC COMPOUND HAVING SELECTIVE KRAS INHIBITORY EFFECT ON HRAS AND NRAS” (CHUGAI SEIYAKU KABUSHIKI KAISHA, priority 2022, published 2025).

Assays:
[1] = target: GDP-bound HRAS wild-type protein (Homo sapiens, UniProt P01112); experiment: Binding to HRAS by surface plasmon resonance (SPR), Single Cycle Kinetics; conditions: KD ratio HRAS/KRAS, class symbols
[2] = target: GDP-bound NRAS wild-type protein (Homo sapiens, UniProt P01111); experiment: Binding to NRAS by surface plasmon resonance (SPR), Single Cycle Kinetics; conditions: KD ratio NRAS/KRAS, class symbols
Sequence of GDP-bound NRAS wild-type protein (P01111 whole entry): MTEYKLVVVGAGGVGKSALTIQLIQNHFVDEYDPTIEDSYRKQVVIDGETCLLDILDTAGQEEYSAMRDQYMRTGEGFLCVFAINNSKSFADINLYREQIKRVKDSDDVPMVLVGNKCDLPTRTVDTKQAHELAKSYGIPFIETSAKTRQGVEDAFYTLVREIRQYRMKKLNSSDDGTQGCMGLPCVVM

Sequence of GDP-bound HRAS wild-type protein (P01112 whole entry): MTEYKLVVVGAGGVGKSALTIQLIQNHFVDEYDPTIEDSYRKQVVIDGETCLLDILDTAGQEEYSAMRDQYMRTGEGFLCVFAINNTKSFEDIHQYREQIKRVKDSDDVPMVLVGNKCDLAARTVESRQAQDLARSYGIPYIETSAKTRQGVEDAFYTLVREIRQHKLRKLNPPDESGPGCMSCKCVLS

SMILES: CCC[C@H]1C(=O)N[C@@H](CC(C)C)C(=O)N2C[C@@H](OC)C[C@H]2C(=O)N(C)[C@H]2C/C=C\CCN(C2=O)[C@@H](Cc2ccc(C)cc2)C(=O)N(C)CC(=O)N[C@@H](CCc2ccc(C(F)(F)F)c(Cl)c2)C(=O)N2C[C@H](OCC)C[C@H]2C(=O)NC2(CCC2)C(=O)N(C)[C@@H](C2CCCC2)C(=O)N(C)[C@H](C(=O)N(C)C)CC(=O)N1C [PP2549]
- HRAS/KRAS (ratio of KD value with respect to GDP-bound HRAS wild-type protein to KD value with respect to KRAS) [1]: B (a compound having 3 or more and less than 10 is denoted as B)
- NRAS/KRAS (ratio of KD value with respect to GDP-bound NRAS wild-type protein to KD value with respect to KRAS) [2]: A (a compound having 10 or more and less than 20 is denoted as A)

SMILES: CCC[C@H]1C(=O)N[C@@H]([C@@H](C)CC)C(=O)N2C[C@@H](OC)C[C@H]2C(=O)N(C)[C@H]2C/C=C\CCN(C2=O)[C@@H](Cc2ccc(C)cc2)C(=O)N(C)CC(=O)N[C@@H](CCc2cc(F)c(C(F)(F)F)c(F)c2)C(=O)N2C[C@H](OCC)C[C@H]2C(=O)NC2(CCC2)C(=O)N(C)[C@@H](C2CCCC2)C(=O)N(C)[C@H](C(=O)N(C)C)CC(=O)N1C [PP2550]
- HRAS/KRAS (ratio of KD value with respect to GDP-bound HRAS wild-type protein to KD value with respect to KRAS) [1]: B (a compound having 3 or more and less than 10 is denoted as B)
- NRAS/KRAS (ratio of KD value with respect to GDP-bound NRAS wild-type protein to KD value with respect to KRAS) [2]: A (a compound having 10 or more and less than 20 is denoted as A)

SMILES: CCC[C@H]1C(=O)N[C@@H](CC(C)C)C(=O)N2C[C@@H](OC)C[C@H]2C(=O)N(C)[C@H]2C/C=C\CCN(C2=O)[C@@H](Cc2ccc(C)cc2)C(=O)N(C)CC(=O)N[C@@H](CCc2cc(F)c(C(F)(F)F)c(F)c2)C(=O)N2C[C@H](OCC)C[C@H]2C(=O)NC2(CC(C)(C)C2)C(=O)N(C)[C@@H](C2CCCC2)C(=O)N(C)[C@H](C(=O)N(C)C)CC(=O)N1C [PP2553]
- HRAS/KRAS (ratio of KD value with respect to GDP-bound HRAS wild-type protein to KD value with respect to KRAS) [1]: B (a compound having 3 or more and less than 10 is denoted as B)
- NRAS/KRAS (ratio of KD value with respect to GDP-bound NRAS wild-type protein to KD value with respect to KRAS) [2]: A (a compound having 10 or more and less than 20 is denoted as A)

SMILES: CCC[C@H]1C(=O)N[C@@H](CC(C)C)C(=O)N2C[C@@H](OC)C[C@H]2C(=O)N(C)[C@H]2C/C=C\CCN(C2=O)[C@@H](Cc2ccc(C)cc2)C(=O)N(C)CC(=O)N[C@@H](CCc2ccc(C(F)(F)F)c(OC)c2)C(=O)N2C[C@H](OCC)C[C@H]2C(=O)NC2(CC(C)(C)C2)C(=O)N(C)[C@@H](C2CCCC2)C(=O)N(C)[C@H](C(=O)N(C)C)CC(=O)N1C [PP2554]
- HRAS/KRAS (ratio of KD value with respect to GDP-bound HRAS wild-type protein to KD value with respect to KRAS) [1]: B (a compound having 3 or more and less than 10 is denoted as B)
- NRAS/KRAS (ratio of KD value with respect to GDP-bound NRAS wild-type protein to KD value with respect to KRAS) [2]: A (a compound having 10 or more and less than 20 is denoted as A)

SMILES: CCC[C@H]1C(=O)N[C@@H](CC(C)C)C(=O)N2C[C@@H](OC)C[C@H]2C(=O)N(C)[C@H]2C/C=C\CCN(C2=O)[C@@H](Cc2ccc(C)cc2)C(=O)N(C)CC(=O)N[C@@H](CCc2ccc(C(F)(F)F)c(Cl)c2)C(=O)N2C[C@H](OCC)C[C@H]2C(=O)NC2(CC(C)(C)C2)C(=O)N(C)[C@@H](C2CCCC2)C(=O)N(C)[C@H](C(=O)N(C)C)CC(=O)N1C [PP2555]
- HRAS/KRAS (ratio of KD value with respect to GDP-bound HRAS wild-type protein to KD value with respect to KRAS) [1]: B (a compound having 3 or more and less than 10 is denoted as B)
- NRAS/KRAS (ratio of KD value with respect to GDP-bound NRAS wild-type protein to KD value with respect to KRAS) [2]: A (a compound having 10 or more and less than 20 is denoted as A)

SMILES: CCC[C@H]1C(=O)N[C@@H]([C@@H](C)CC)C(=O)N2C[C@@H](OC)C[C@H]2C(=O)N(C)[C@H]2C/C=C\CCN(C2=O)[C@@H](Cc2ccc(C)cc2)C(=O)N(C)CC(=O)N[C@@H](CCc2cc(F)c(C(F)(F)F)c(F)c2)C(=O)N2C[C@H](OCC)C[C@H]2C(=O)NC2(CC(C)(C)C2)C(=O)N(C)[C@@H](C2CCCC2)C(=O)N(C)[C@H](C(=O)N(C)C)CC(=O)N1C [PP2556]
- HRAS/KRAS (ratio of KD value with respect to GDP-bound HRAS wild-type protein to KD value with respect to KRAS) [1]: B (a compound having 3 or more and less than 10 is denoted as B)
- NRAS/KRAS (ratio of KD value with respect to GDP-bound NRAS wild-type protein to KD value with respect to KRAS) [2]: A (a compound having 10 or more and less than 20 is denoted as A)

SMILES: CCC[C@H]1C(=O)N[C@@H]([C@@H](C)CC)C(=O)N2C[C@@H](OC)C[C@H]2C(=O)N(C)[C@H]2C/C=C\CCN(C2=O)[C@@H](Cc2ccc(C)cc2)C(=O)N(C)CC(=O)N[C@@H](CCc2ccc(C(F)(F)F)c(OC)c2)C(=O)N2C[C@H](OCC)C[C@H]2C(=O)NC2(CC(C)(C)C2)C(=O)N(C)[C@@H](C2CCCC2)C(=O)N(C)[C@H](C(=O)N(C)C)CC(=O)N1C [PP2557]
- HRAS/KRAS (ratio of KD value with respect to GDP-bound HRAS wild-type protein to KD value with respect to KRAS) [1]: B (a compound having 3 or more and less than 10 is denoted as B)
- NRAS/KRAS (ratio of KD value with respect to GDP-bound NRAS wild-type protein to KD value with respect to KRAS) [2]: A (a compound having 10 or more and less than 20 is denoted as A)

SMILES: CCC[C@H]1C(=O)N[C@@H]([C@@H](C)CC)C(=O)N(C2CC2)CC(=O)N(C)[C@H]2C/C=C\CCN(C2=O)[C@@H](Cc2ccc(C)cc2)C(=O)N(C)CC(=O)N[C@@H](CCc2ccc(Cl)c(Cl)c2)C(=O)N2C[C@H](OCC)C[C@H]2C(=O)NC2(CC(C)(C)C2)C(=O)N(C)[C@@H](C2CCCC2)C(=O)N(C)[C@H](C(=O)N(C)C)CC(=O)N1C [PP2559]
- HRAS/KRAS (ratio of KD value with respect to GDP-bound HRAS wild-type protein to KD value with respect to KRAS) [1]: A (a compound having 10 or more and less than 20 is denoted as A)
- NRAS/KRAS (ratio of KD value with respect to GDP-bound NRAS wild-type protein to KD value with respect to KRAS) [2]: A (a compound having 10 or more and less than 20 is denoted as A)

SMILES: CCC[C@H]1C(=O)N[C@@H]([C@@H](C)CC)C(=O)N(C2CC2)CC(=O)N(C)[C@H]2C/C=C\CCN(C2=O)[C@@H](Cc2ccc(C)cc2)C(=O)N(C)CC(=O)N[C@@H](CCc2cc(F)c(C(F)(F)F)c(F)c2)C(=O)N2C[C@H](OCC)C[C@H]2C(=O)NC2(CC(C)(C)C2)C(=O)N(C)[C@@H](C(CC)CC)C(=O)N(C)[C@H](C(=O)N(C)C)CC(=O)N1C [PP2560]
- HRAS/KRAS (ratio of KD value with respect to GDP-bound HRAS wild-type protein to KD value with respect to KRAS) [1]: A (a compound having 10 or more and less than 20 is denoted as A)
- NRAS/KRAS (ratio of KD value with respect to GDP-bound NRAS wild-type protein to KD value with respect to KRAS) [2]: AA (a compound having 20 or more is denoted as AA)

SMILES: CCC[C@H]1C(=O)N[C@@H]([C@@H](C)CC)C(=O)N(C2CC2)CC(=O)N(C)[C@H]2C/C=C\CCN(C2=O)[C@@H](Cc2ccc(C)cc2)C(=O)N(C)CC(=O)N[C@@H](CCc2ccc(Cl)c(Cl)c2)C(=O)N2C[C@H](OCC)C[C@H]2C(=O)NC2(CC(C)(C)C2)C(=O)N(C)[C@@H](C(CC)CC)C(=O)N(C)[C@H](C(=O)N(C)C)CC(=O)N1C [PP2561]
- HRAS/KRAS (ratio of KD value with respect to GDP-bound HRAS wild-type protein to KD value with respect to KRAS) [1]: A (a compound having 10 or more and less than 20 is denoted as A)
- NRAS/KRAS (ratio of KD value with respect to GDP-bound NRAS wild-type protein to KD value with respect to KRAS) [2]: AA (a compound having 20 or more is denoted as AA)

SMILES: CCO[C@@H]1C[C@H]2C(=O)NC3(CC(C)(C)C3)C(=O)N(C)[C@@H](C3CCCC3)C(=O)N(C)[C@H](C(=O)N(C)C)CC(=O)N(C)[C@@H](COC)C(=O)N[C@@H]([C@@H](C)CC)C(=O)N(C3CC3)CC(=O)N(C)[C@H]3C/C=C\CCN(C3=O)[C@@H](CC3CCCCC3)C(=O)N(C)CC(=O)N[C@@H](CCc3cc(F)c(C(F)(F)F)c(F)c3)C(=O)N2C1 [PP2562]
- HRAS/KRAS (ratio of KD value with respect to GDP-bound HRAS wild-type protein to KD value with respect to KRAS) [1]: B (a compound having 3 or more and less than 10 is denoted as B)
- NRAS/KRAS (ratio of KD value with respect to GDP-bound NRAS wild-type protein to KD value with respect to KRAS) [2]: B (a compound having 3 or more and less than 10 is denoted as B)
